Laboratory results from ChEMBL document CHEMBL1212939, “Structure and relative potency of several karlotoxins from Karlodinium veneficum” (J Nat Prod, 2010).

Experiment: Toxicity in human erythrocytes assessed as hemolytic activity after 24 hrs
Type: cell-based, Erythrocyte

Work on `C=C(CCC(O)C1OC(CC(O)C(O)C(C)CCCC(O)C(O)C(O)C(C)CCC(O)C(O)C(C)CC(O)CCCC(O)CCCC(O)/C=C/CC(O)CO)C(O)C(O)C1O)C(O)C(O)C1CC(O)C(O)C(C(O)C(O)/C=C/CCCCCCCCC/C=C/C=C/Cl)O1` (stereo not given) yielded an EC50 at 24 h of 110 nM.

Compound `C=C/C=C/CCCCCCCCC/C=C/C(O)C(O)C1OC(C(O)C(O)C(=C)CCC(O)C2OC(CC(O)C(O)C(C)CCCC(O)C(O)C(O)C(C)CCC(O)C(O)C(C)CC(O)CCCC(O)CCCC(O)/C=C/CC(O)CO)C(O)C(O)C2O)CC(O)C1O` (stereo not given) has an EC50 at 24 h of 200 nM.

Work on `C=C/C=C/CCCCCCCCCC/C=C/C(O)C(O)C1OC(C(O)C(O)C(=C)CCC(O)C2OC(CC(O)C(O)C(C)CCCC(O)C(O)C(O)C(C)CCC(O)C(O)C(C)CC(O)CCCC(CCCC(O)/C=C/CC(O)CO)OS(=O)(=O)O)C(O)C(O)C2O)CC(O)C1O` (stereo not given) yielded an EC50 at 24 h of 300 nM.

`C=C/C=C/CCCCCCCCCC/C=C/C(O)C(O)C1OC(C(O)C(O)C(=C)CCC(O)C2OC(CC(O)C(O)C(C)CCCC(O)C(O)C(O)C(C)CCC(O)C(O)C(C)CC(O)CCCC(O)CCCC(O)/C=C/CC(O)CO)C(O)C(O)C2O)CC(O)C1O` (stereo not given) gave an EC50 at 24 h of 63 nM.

For `C=C(CCC(O)C1OC(CC(O)C(O)C(C)CCCC(O)C(O)C(O)C(C)CCC(O)C(O)C(C)CC(O)CCCC(O)CCCC(O)/C=C/CC(O)CO)C(O)C(O)C1O)C(O)C(O)C1CC(O)C(O)C(C(O)C(O)/C=C/CCCCCCCCCC/C=C/C=C/Cl)O1` (stereo not given), the EC50 at 24 h was 56 nM.
